Activity calls are given as the source filed them.
Tests used:
Cytochrome P450 2C19 = Cytochrome P450 2C19 (Homo sapiens, UniProt P33261); assay: Cytochrome panel assay with activity outcomes. Panel member name: p450-cyp2c19 Compounds with AC50 equal or less than 10 uM are considered active; format: functional; conditions: read-out: AC50
Cytochrome P450 2D6 = Cytochrome P450 2D6 (Homo sapiens, UniProt P10635);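 further: CYP2D6 member of a cytochrome P450 panel assay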
Cytochrome P450 1A2 = biological target: T1, Cytochrome P450 1A2 (Homo sapiens, UniProt P05177);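 further: PubChem cytochrome P450 panel assay, CYP1A2 panel member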
T1 sequence (P05177 whole entry): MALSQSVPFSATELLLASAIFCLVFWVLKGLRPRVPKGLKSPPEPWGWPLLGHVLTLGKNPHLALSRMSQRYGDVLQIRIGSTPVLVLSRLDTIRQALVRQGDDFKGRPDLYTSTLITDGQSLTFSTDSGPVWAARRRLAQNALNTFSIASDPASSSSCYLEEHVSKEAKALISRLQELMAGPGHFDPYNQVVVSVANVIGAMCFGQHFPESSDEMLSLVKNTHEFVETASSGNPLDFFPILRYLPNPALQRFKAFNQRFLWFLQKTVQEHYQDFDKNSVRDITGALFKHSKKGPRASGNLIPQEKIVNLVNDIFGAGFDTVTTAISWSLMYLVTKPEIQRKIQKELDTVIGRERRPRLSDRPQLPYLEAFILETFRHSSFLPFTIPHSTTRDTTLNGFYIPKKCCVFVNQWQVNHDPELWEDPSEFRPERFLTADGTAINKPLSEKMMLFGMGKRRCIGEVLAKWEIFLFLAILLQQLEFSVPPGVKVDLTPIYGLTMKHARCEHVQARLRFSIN

[1] = biological target: T2, Replicative DNA helicase DnaB (Mycobacterium tuberculosis, UniProt P9WMR3); assay: DnaB intein splicing inhibitors, dose response, biochemical, cell-free fluorescence (AID 449749); format: functional
T2 sequence (P9WMR3 whole entry): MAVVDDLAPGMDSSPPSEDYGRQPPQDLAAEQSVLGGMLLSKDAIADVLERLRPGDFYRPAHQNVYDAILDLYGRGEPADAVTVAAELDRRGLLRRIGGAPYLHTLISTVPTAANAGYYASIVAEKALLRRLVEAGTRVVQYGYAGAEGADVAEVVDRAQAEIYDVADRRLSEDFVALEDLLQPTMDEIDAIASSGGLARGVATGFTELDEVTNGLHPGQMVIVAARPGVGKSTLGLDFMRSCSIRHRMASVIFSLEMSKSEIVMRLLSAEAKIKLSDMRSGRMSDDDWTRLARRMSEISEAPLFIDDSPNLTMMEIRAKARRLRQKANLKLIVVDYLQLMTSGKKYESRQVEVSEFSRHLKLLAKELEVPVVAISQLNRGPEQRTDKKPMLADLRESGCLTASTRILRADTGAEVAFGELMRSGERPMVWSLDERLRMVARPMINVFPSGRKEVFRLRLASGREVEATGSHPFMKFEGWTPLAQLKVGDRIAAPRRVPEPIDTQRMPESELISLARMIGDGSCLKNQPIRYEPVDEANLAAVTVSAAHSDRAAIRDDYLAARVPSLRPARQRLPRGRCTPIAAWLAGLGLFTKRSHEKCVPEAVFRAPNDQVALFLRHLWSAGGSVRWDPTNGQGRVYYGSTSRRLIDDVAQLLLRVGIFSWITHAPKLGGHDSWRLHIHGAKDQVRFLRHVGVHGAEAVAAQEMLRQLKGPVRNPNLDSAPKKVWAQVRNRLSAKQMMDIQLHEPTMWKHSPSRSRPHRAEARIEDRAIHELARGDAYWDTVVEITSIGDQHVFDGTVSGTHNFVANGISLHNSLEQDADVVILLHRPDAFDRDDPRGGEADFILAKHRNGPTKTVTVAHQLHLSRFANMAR

Protein RecA = biological target: T3, Protein RecA (Mycobacterium tuberculosis, UniProt P9WHJ3); assay: Fluorescence Cell-Free Homogeneous Dose Retest to Identify Inhibitors of RecA-Intein Splicing Activity. [Related pubchem assays (depositor defined):AID2097, AID2223, AID489010, AID492950]; format: functional
T3 sequence (P9WHJ3 whole entry): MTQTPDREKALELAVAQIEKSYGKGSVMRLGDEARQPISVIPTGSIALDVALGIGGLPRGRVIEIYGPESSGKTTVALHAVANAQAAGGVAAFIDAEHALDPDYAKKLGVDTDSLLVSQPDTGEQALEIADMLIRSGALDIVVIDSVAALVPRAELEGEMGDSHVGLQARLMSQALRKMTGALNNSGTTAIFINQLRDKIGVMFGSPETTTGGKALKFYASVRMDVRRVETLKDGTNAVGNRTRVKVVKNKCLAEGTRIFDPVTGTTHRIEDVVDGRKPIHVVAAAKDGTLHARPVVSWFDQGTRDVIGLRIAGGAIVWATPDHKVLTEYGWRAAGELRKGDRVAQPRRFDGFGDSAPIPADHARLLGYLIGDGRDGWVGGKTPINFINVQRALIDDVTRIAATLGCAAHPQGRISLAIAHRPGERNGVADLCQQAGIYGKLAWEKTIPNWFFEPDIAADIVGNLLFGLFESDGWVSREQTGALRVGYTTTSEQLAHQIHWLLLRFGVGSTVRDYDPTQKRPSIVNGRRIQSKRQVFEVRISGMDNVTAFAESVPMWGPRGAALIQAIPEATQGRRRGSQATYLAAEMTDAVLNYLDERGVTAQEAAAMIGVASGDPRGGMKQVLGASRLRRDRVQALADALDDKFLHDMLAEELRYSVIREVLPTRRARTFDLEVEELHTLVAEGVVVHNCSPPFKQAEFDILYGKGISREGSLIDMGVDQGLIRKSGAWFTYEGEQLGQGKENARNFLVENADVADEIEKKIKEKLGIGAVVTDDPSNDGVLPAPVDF

[2] = biological target: T4, RNA-binding protein pos-1 (Caenorhabditis elegans, UniProt G5EF15); assay: disruptors of C. elegans POS-1 RNA interaction – biochemical, fluorescence polarization, dose response (AID 1964);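 further: purified POS-1 fused to maltose binding protein made in E. coli; potency of compounds blocking POS-1 binding to fluorescent RNA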
T4 sequence (G5EF15 whole entry): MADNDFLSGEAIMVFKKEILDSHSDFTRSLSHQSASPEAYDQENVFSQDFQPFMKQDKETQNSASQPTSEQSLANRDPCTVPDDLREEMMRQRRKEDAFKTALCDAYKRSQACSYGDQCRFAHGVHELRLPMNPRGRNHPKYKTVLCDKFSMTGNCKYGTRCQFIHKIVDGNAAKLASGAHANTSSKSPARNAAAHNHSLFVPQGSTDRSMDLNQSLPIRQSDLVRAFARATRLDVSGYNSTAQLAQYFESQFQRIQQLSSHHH

[3] = biological target: T5, Zinc finger protein mex-5 (Caenorhabditis elegans, UniProt Q9XUB2); assay: potency of MEX-5 RNA-binding blockers – biochemical, C. elegans, fluorescence polarization, dose response (AID 1960)
T5 sequence (Q9XUB2 whole entry): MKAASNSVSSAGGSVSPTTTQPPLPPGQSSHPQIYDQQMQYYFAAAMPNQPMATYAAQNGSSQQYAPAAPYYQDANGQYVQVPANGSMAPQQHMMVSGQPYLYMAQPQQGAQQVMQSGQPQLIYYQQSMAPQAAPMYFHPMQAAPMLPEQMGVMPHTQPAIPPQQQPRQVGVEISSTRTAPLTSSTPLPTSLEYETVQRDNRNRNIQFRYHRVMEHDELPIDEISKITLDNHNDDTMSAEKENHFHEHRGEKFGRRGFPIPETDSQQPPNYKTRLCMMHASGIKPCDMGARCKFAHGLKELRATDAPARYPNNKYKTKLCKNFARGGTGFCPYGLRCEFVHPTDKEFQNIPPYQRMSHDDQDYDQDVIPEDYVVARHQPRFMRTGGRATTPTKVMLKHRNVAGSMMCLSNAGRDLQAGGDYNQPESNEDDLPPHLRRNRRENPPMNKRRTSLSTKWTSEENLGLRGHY

[4] = biological target: T6, Rac GTPase-activating protein 1 (Homo sapiens, UniProt Q9H0H5); assay: blockers of MgcRacGAP-driven Rac1 GTP hydrolysis – biochemical, ADP Hunter fluorescence, primary and confirmatory, confirmation (AID 624330); format: functional
T6 sequence (Q9H0H5 whole entry): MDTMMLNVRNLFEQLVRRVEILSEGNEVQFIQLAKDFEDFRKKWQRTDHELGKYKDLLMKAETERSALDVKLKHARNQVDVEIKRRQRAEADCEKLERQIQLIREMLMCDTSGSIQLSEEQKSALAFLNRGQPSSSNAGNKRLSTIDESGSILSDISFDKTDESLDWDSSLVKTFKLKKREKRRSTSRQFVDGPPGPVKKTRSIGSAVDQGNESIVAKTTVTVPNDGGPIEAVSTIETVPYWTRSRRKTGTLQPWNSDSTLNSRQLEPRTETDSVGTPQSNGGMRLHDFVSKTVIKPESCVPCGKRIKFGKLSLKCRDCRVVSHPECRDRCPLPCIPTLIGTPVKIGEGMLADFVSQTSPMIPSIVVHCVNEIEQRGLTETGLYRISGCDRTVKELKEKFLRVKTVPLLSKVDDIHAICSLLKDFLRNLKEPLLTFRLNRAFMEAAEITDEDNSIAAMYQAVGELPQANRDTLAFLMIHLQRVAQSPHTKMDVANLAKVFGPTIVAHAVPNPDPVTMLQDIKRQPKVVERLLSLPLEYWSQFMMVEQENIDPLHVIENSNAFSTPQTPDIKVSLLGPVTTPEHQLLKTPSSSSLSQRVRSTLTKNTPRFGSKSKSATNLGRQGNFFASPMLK

Cytochrome P450 3A4 = Cytochrome P450 3A4 (Homo sapiens, UniProt P08684);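 further: CYP3A4 tested as one member of a cytochrome P450 panel screen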
Sequence of Cytochrome P450 3A4 (P08684 whole entry): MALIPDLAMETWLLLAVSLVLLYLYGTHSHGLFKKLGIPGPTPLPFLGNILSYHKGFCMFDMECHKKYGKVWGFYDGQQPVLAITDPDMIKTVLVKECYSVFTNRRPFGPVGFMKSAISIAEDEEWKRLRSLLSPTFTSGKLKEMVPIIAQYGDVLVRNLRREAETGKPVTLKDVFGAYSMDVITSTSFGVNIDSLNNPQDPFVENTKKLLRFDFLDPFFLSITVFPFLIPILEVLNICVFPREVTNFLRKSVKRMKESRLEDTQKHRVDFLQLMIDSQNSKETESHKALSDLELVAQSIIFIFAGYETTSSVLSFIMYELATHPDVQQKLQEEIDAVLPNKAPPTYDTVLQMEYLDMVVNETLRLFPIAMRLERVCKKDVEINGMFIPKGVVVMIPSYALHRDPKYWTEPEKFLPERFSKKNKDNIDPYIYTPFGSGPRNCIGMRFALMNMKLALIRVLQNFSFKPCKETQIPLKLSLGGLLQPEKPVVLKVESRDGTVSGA

Cytochrome P450 2C9 = Cytochrome P450 2C9 (Homo sapiens, UniProt P11712)
Sequence of Cytochrome P450 2C9 (P11712 whole entry): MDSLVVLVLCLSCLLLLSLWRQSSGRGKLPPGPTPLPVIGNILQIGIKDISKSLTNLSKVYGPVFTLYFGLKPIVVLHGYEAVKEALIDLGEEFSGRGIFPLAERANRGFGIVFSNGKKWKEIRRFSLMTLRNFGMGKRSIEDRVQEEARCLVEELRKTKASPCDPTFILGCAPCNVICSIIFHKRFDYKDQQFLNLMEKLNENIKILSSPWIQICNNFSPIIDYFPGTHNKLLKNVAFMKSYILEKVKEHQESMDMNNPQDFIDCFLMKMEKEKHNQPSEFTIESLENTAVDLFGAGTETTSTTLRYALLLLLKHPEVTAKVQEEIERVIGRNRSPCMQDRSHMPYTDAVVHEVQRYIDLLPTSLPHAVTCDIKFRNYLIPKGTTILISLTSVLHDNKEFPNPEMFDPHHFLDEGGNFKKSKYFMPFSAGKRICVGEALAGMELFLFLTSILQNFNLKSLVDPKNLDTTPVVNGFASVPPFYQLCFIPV

[5] = system: Streptococcus sp. 'group A'; assay: Streptococcus pyogenes SK(-)GAS viability under kanamycin – luminescence, BacTiterGlo, confirmation, counter-screen for streptokinase expression inhibitor project, dose response (AID 1900); format: functional, organism-based
Streptococcus = assay: GAS UMAA2166 growth inhibition – luminescence, BacTiterGlo, counter-screen for streptokinase expression inhibitor project, dose response (AID 1915); format: functional, organism-based;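 further: potency for reduction of bacterial viability or growth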

Sequence of Cytochrome P450 2C19 (P33261 whole entry): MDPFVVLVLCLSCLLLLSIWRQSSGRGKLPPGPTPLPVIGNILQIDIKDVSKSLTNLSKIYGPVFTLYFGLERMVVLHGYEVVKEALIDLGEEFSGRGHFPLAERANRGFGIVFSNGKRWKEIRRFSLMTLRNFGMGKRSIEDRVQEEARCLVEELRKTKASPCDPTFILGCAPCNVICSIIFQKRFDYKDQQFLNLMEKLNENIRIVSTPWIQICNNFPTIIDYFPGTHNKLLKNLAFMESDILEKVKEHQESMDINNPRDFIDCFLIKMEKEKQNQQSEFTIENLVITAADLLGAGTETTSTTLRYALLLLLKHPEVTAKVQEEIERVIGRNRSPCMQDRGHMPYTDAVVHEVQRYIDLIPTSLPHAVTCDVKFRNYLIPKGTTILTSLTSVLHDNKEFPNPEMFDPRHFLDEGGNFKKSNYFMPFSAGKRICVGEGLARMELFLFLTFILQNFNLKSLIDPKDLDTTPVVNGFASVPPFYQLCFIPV
Sequence of Cytochrome P450 2D6 (P10635 whole entry): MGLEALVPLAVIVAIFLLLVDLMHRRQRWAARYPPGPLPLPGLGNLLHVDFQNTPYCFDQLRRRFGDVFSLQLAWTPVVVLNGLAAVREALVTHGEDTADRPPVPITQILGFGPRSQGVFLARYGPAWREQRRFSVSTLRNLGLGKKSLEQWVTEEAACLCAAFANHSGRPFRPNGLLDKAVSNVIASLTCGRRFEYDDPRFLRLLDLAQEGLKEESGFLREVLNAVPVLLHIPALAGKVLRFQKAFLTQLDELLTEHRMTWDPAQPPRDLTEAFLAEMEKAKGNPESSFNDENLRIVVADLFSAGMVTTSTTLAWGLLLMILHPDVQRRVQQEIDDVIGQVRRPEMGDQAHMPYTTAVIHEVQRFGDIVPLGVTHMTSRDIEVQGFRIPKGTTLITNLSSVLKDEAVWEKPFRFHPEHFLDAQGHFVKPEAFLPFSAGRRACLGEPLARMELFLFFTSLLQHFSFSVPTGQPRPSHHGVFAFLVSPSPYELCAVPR

SMILES	EC50 (Protein RecA)	EC50 [2]	EC50 [3]	further results
C=CCSc1nnc2c(n1)OC(c1c(C)[nH]n(-c3ccccc3)c1=O)Nc1ccccc1-2 (configuration not stated)				AC50 (Cytochrome P450 2C19): 8.91 µM (inconclusive); AC50 (Cytochrome P450 2D6): 0.158 µM (inconclusive); AC50 (Cytochrome P450 1A2): 15.8 µM (inconclusive)
O=C(Oc1ccc(Br)cc1C(=S)N1CCOCC1)c1cccc([N+](=O)[O-])c1	23.1 µM (active)			AC50 [1]: 18.2 µM (active)
O=C(/C=C/c1c(Cl)cccc1Cl)N1CCOCC1		> 300 µM (not active)	> 300 µM (not active)	
Oc1ccc(/C=N/Nc2ncc(Cl)cc2Cl)cc1				IC50 [4]: 32.3 µM (active)
NC(=O)c1ccsc1N		10.9 µM (active)	10.1 µM (inconclusive)	
CC(C)(C)NC(=O)C(c1ccc(Cl)cc1)N(Cc1ccco1)C(=O)CCl (configuration not stated)	1.97 µM (active)			AC50 [1]: 24.1 µM (active)
C=CCn1c(-c2cccnc2Cl)nc2ccccc21	> 380 µM (inactive)			AC50 [1]: > 380 µM (inactive)
Cc1cccc(N(C)S(=O)(=O)c2nnc(NC(=O)c3ccco3)s2)c1		> 300 µM (not active)	> 300 µM (not active)	
CCOC(=O)c1c(NC(=O)/C=C/C(=O)O)sc(C)c1-c1ccc(F)cc1	6.23 µM (active)			AC50 [1]: 14.3 µM (active)
Oc1cccc(/C=N/N=C/c2cccc(O)c2O)c1O		42.9 µM (active)	24.6 µM (active)	
CC(C)CS(=O)(=O)C1=NN2C(=N)/C(=C\c3ccc(OC(=O)c4ccco4)cc3)C(=O)N=C2S1	14.4 µM (active)			
CC1=NNC(=O)C1Cc1c(Cl)cccc1Cl (configuration not stated)	0.642 µM (active)			AC50 [1]: 1.39 µM (active)
COc1ccc2[nH]c(SCC(=O)Nc3nonc3C)nc2c1		18.4 µM (active)	20.7 µM (inconclusive)	
O=C(NNC(=O)c1ccccc1[N+](=O)[O-])c1cnccn1		76.5 µM (active)	1.25 µM (active)	
C=CCNC(=S)Nc1ccc(OC(=O)Nc2ccc(Cl)c(Cl)c2)cc1				IC50 [4]: 89 µM (active)
Cc1ccccc1N=Nc1c(O)n(C)c2ccccc12		> 300 µM (not active)	> 300 µM (not active)	
CN1C(=O)C(=C2CC(c3ccccc3)N(C(=O)CCl)N2)C(=O)N(C)C1=O (configuration not stated)	0.351 µM (active)			AC50 [1]: 2.05 µM (active)
Cn1c(SCC(=O)NCc2ccc(F)cc2)nc2ccccc21	> 380 µM (inactive)			AC50 [1]: 124 µM (active)
O=C(O)c1cc(-n2cccc2)ccc1N1CCOCC1		> 300 µM (not active)	74.3 µM (active)	
COc1ccc(CCNC(=O)CNCC(c2ccccc2)N(C)C)cc1OC (configuration not stated)				IC50 [4]: 78.4 µM (active)
Oc1ccc(CCc2ccccn2)cc1				IC50 [4]: 40 µM (active)
COC(=O)c1ccc(-n2c(C)ccc2-c2ccccc2)cc1		> 300 µM (not active)	> 300 µM (not active)	
Cc1c(N(C)C)nc2ccccc2c1N				IC50 [4]: 102 µM (active)
OCCN1CCN(CC(O)COC(c2ccc(F)cc2)c2ccc(F)cc2)CC1 (configuration not stated)				IC50 [4]: 121 µM (active)
Cc1ccc2occ(/C=C/C(=O)O)c(=O)c2c1				AC50 (Cytochrome P450 2C19): 28.2 µM (inconclusive); AC50 (Cytochrome P450 2D6): 15.8 µM (inconclusive); AC50 (Cytochrome P450 3A4): 22.4 µM (inconclusive); AC50 (Cytochrome P450 2C9): 25.1 µM (inconclusive)
CC(C)CC1C(C#N)=C(N)Oc2[nH]nc(-c3cccs3)c21 (configuration not stated)	58.1 µM (active)			AC50 [1]: 48.8 µM (active)
CCOC(=O)N1CCN(C(=O)c2ccc3c(c2)NC(=O)/C(=C\c2ccc(OC)c(OC)c2)S3)CC1		> 300 µM (not active)	> 300 µM (inconclusive)	EC50 [5]: 875 nM (active); EC50 (Streptococcus): 5.67 µM (active)
